Experimental findings from ChEMBL document CHEMBL5325457, “Targeting m6A binding protein YTHDFs for cancer therapy” (Bioorg Med Chem, 2023) are described below.

Assay [1] is described as follows: Inhibition of YTHDF (unknown origin). The arrangement: species or system Homo sapiens.
Assay [2] deals with T1, YTH domain-containing family protein 2 (Homo sapiens, UniProt Q9Y5A9).
T1 sequence (Q9Y5A9 whole entry): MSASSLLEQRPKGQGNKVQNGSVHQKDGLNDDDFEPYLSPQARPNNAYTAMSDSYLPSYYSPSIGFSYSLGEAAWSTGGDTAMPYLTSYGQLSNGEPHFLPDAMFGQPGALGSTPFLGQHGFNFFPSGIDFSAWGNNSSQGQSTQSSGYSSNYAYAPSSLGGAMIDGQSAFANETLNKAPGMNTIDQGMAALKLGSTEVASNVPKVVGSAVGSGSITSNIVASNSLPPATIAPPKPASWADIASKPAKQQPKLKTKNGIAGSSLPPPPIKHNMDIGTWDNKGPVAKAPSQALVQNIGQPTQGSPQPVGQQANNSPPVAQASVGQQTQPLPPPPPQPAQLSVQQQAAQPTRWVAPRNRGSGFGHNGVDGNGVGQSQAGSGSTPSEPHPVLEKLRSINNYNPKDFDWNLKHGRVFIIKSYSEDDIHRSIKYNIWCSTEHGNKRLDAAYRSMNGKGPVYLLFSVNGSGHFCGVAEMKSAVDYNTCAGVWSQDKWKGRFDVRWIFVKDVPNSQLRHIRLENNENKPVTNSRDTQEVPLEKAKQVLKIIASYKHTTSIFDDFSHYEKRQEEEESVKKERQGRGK
The assay is described as follows: Inhibition of YTHDF2 YTH domain (unknown origin) (383 to 579 residues) expressed as Escherichia coli BL21 (DE3) Rosetta cells by HTFR based binding assay.

A word on the EC50: it is the concentration at which the effect is half-maximal. `CCN(CC)CCn1sc2ccccc2c1=O` showed an EC50 in assay [1] of 1.69 µM.

`O=c1c2ccccc2sn1CCN1CCOCC1` came in with an EC50 in assay [1] of 2.83 µM. This EC50 is about 1.7-fold higher than that of the compound before.

A word on the IC50: it is the concentration that gives 50% inhibition. On to `CNc1ncnc2c(C)[nH]nc12`, for which the IC50 in assay [2] was determined as 174 µM.

On to `O=c1cc(C2CC2)[nH]c(=O)[nH]1`, for which the IC50 in assay [2] came out at 410 µM.

For `Cn1c(=O)cc(C2CC2)[nH]c1=O`, in assay [2], the IC50 is 161 µM. This IC50 is about 2.5-fold lower than that of the compound before. Still for that read-out and setting: with `CNc1ncnc2c(-c3ccccc3)[nH]nc12` the figure was 491 µM. Regarding `O=c1c2ccccc2[se]n1-c1ccccc1` [EBSELEN], the EC50 in assay [1] is 1.5 µM.
